Measured values: US11000033B2, “Ketone or oxime compound, and herbicide” (NISSAN CHEMICAL CORPORATION, priority 2014, dated 2021)

Key:
Format in all cases: in vivo
Abutilon theophrasti = assay: Test Example 4: herbicidal effect by soil treatment (symbol M)
Summary of the method: (§1)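 Seeds were sown in sterilized diluvial soil, covered with about 1.5 cm of soil, and the soil surface was sprayed with a water-diluted emulsion of the compound at a predetermined rate. Plants grew in a greenhouse at 25° C. to 30° C.; effects were scored visually 3 weeks after application.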

transplanted rice plant = assay: Test Example 1: effect on crop, application before weed generation in submerged conditions (symbol a); conditions: application herbicide amount 320 g/ha
Summary of the method: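 Alluvial soil pots flooded to 4 cm water, sown with Echinochloa oryzacola, Scirpus juncoides and Monochoria vaginalis, then transplanted with 2.5 leaf stage rice seedlings; pre-emergence application. Greenhouse 25° C. to 30° C.; scored 0–5 by herbicidal ratio 3 weeks after application.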

[1] = test system: Echinochloa oryzacola Vasing.; assay: Test Example 1: herbicidal activity, application before weed generation in submerged conditions (symbol A); conditions: application herbicide amount 320 g/ha
Summary of the method: (§2)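 Weeds are sown into submerged alluvial soil alongside transplanted 2.5-leaf rice, and the compound, as an emulsion diluted to a set rate, is applied onto the water before emergence. Rating on the 0–5 herbicidal-ratio scale follows 3 weeks of greenhouse growth at 25–30 °C.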

Avena fatua = assay: Test Example 5: herbicidal effect by foliage application, plastic box (symbol I); conditions: 320 g/ha, 3 weeks after application
Summary of the method: (§3)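 Effect is rated 3 weeks after a foliar spray of water-diluted emulsion concentrate at a predetermined herbicide amount. Plants had grown 14 days in a 25° C. to 30° C. greenhouse from seed in sterilized diluvial soil.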

Lolium multiflorum Lam. = assay: Test Example 5: herbicidal effect by foliage application, plastic box (symbol K); conditions: 320 g/ha, 3 weeks after application
Summary of the method: as §3

Digitaria ciliaris = assay: Test Example 5: herbicidal effect by foliage application, plastic box (symbol F); conditions: 320 g/ha, 3 weeks after application
Summary of the method: as §3

Scirpus juncoides = assay: Test Example 1: herbicidal activity, application before weed generation in submerged conditions (symbol B); conditions: application herbicide amount 320 g/ha
Summary of the method: as §2

Apera spica-venti [2] = assay: Test Example 5: herbicidal effect by foliage application, plastic box (symbol L); conditions: 320 g/ha, 3 weeks after application
Summary of the method: as §3

Galium spurium [3] = assay: Test Example 4: herbicidal effect by soil treatment (symbol Q)
Summary of the method: as §1

Monochoria vaginalis = assay: Test Example 1: herbicidal activity, application before weed generation in submerged conditions (symbol C); conditions: application herbicide amount 320 g/ha
Summary of the method: as §2

Veronica persica = assay: Test Example 4: herbicidal effect by soil treatment (symbol R)
Summary of the method: as §1

[4] = test system: directly sowed rice plant; assay: Test Example 3: effect on crop by foliage application, Wagner pot (symbol b); conditions: application herbicide amount 320 g/ha; for b (directly sowed rice plant) effect on crop grade: Table 24
Summary of the method: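 Plants are raised from seed in flooded paddy conditions: water stands 0.1–0.5 cm over alluvial soil, and the pot is kept in a greenhouse at 25–30 °C. Species sown are barnyardgrass (E. crus-galli var. crus-galli), Leptochloa chinensis, Cyperus difformis and rice.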

wheat = assay: Test Example 5: effect on crop by foliage application, plastic box (symbol e); conditions: 320 g/ha, 3 weeks after application
Summary of the method: (§4)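 A greenhouse held between 25° C. and 30° C. was used to grow plants sown spot-wise, beneath ~1.5 cm of soil, in boxes of sterilized diluvial soil.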

Galium spurium [5] = assay: Test Example 5: herbicidal effect by foliage application, plastic box (symbol Q); conditions: 320 g/ha, 3 weeks after application
Summary of the method: as §3

Setaria viridis = assay: Test Example 4: herbicidal effect by soil treatment (symbol G); conditions: for G: Setaria viridis, herbicidal effect grade: 320 g/ha
Summary of the method: as §1

Stellaria media = assay: Test Example 4: herbicidal effect by soil treatment (symbol P)
Summary of the method: as §1

rapeseed = assay: Test Example 5: effect on crop by foliage application, plastic box (symbol g); conditions: 320 g/ha, 3 weeks after application
Summary of the method: as §4

Apera spica-venti [6] = assay: Test Example 4: herbicidal effect by soil treatment (symbol L)
Summary of the method: as §1

[7] = application herbicide amount 320 g/ha

Row | Structure (SMILES) | a (transplanted rice plant) effect on crop grade (transplanted rice plant) | A (Echinochloa oryzacola Vasing.) herbicidal effect grade [1] | I: Avena fatua, herbicidal effect grade (Avena fatua) | K: Lolium multiflorum Lam., herbicidal effect grade (Lolium multiflorum Lam.) | F: Digitaria ciliaris, herbicidal effect grade (Digitaria ciliaris) | B (Scirpus juncoides) herbicidal effect grade (Scirpus juncoides) | L: Apera spica-venti, herbicidal effect grade (Apera spica-venti [2]) | C (Monochoria vaginalis) herbicidal effect grade (Monochoria vaginalis) | b (directly sowed rice plant) effect on crop grade [4] | e: wheat, effect on crop grade (wheat) | Q: Galium spurium, herbicidal effect grade (Galium spurium [5]) | g: rapeseed, effect on crop grade (rapeseed) | M: Abutilon theophrasti, herbicidal effect grade (Abutilon theophrasti; 320 g/ha) | Effect grade on crop, a: transplanted rice plant (transplanted rice plant) | Herbicidal effect grade, A: Echinochloa oryzacola Vasing. [1] | I: Avena fatua, herbicidal effect (criteria 0-5) (Avena fatua) | K: Lolium multiflorum Lam., herbicidal effect (criteria 0-5) (Lolium multiflorum Lam.) | F: Digitaria ciliaris, herbicidal effect (criteria 0-5) (Digitaria ciliaris) | Herbicidal effect grade, B: Scirpus juncoides (Scirpus juncoides) | L: Apera spica-venti, herbicidal effect (criteria 0-5) (Apera spica-venti [2]) | further results
1 | CC(CC1CC(OC(=O)N2CCOCC2)=C(c2c(C)cc(-c3ccc(Cl)cc3)cc2C)C1=O)=NOCC(F)(F)F (mixture of isomers) [9-025] | 0 (Herbicidal ratio of 5% or lower (almost no effect)) | 5 (Herbicidal ratio of 90% or more (almost completely withered)) | 3 (Herbicidal ratio of 40% or higher and lower than 70%) | 0 (Herbicidal ratio of 5% or lower (almost no effect)) | 5 (Herbicidal ratio of 90% or more (almost completely withered)) | 1 (Herbicidal ratio of 5% or higher and lower than 20%) | 0 (Herbicidal ratio of 5% or lower (almost no effect)) | 1 (Herbicidal ratio of 5% or higher and lower than 20%) | 2 (Herbicidal ratio of 20% or higher and lower than 40%) | 0 (Herbicidal ratio of 5% or lower (almost no effect)) | 0 (Herbicidal ratio of 5% or lower (almost no effect)) | 0 (Herbicidal ratio of 5% or lower (almost no effect)) |  |  |  |  |  |  |  |  | Herbicidal effect grade, M: Abutilon theophrasti (Abutilon theophrasti; [7]): 0 (Herbicidal ratio of 5% or lower (almost no effect)); Herbicidal effect grade, Q: Galium spurium (Galium spurium [3]; [7]): 0 (Herbicidal ratio of 5% or lower (almost no effect)); Herbicidal effect grade, R: Veronica persica (Veronica persica; [7]): 0 (Herbicidal ratio of 5% or lower (almost no effect)); Herbicidal effect grade, G: Setaria viridis (Setaria viridis; [7]): 0 (Herbicidal ratio of 5% or lower (almost no effect)); Herbicidal effect grade, P: Stellaria media (Stellaria media; [7]): 0 (Herbicidal ratio of 5% or lower (almost no effect)); Herbicidal effect grade, L: Apera spica-venti (Apera spica-venti [6]; [7]): 0 (Herbicidal ratio of 5% or lower (almost no effect))
2 | CCC(CC1CC(O)=C(c2c(C)cc(Br)cc2OC)C1=O)=NOC (mixture of isomers) [13-001] | 5 (Herbicidal ratio of 90% or more (almost completely withered)) | 5 (Herbicidal ratio of 90% or more (almost completely withered)) | 5 (Herbicidal ratio of 90% or more (almost completely withered)) | 5 (Herbicidal ratio of 90% or more (almost completely withered)) | 5 (Herbicidal ratio of 90% or more (almost completely withered)) | 2 (Herbicidal ratio of 20% or higher and lower than 40%) | 5 (Herbicidal ratio of 90% or more (almost completely withered)) | 0 (Herbicidal ratio of 5% or lower (almost no effect)) | 5 (Herbicidal ratio of 90% or more (almost completely withered)) | 5 (Herbicidal ratio of 90% or more (almost completely withered)) | 0 (Herbicidal ratio of 5% or lower (almost no effect)) | 4 (Herbicidal ratio of 70% or higher and lower than 90%) |  |  |  |  |  |  |  |  | M: Abutilon theophrasti, herbicidal effect grade (Abutilon theophrasti; [7]): 0 (Herbicidal ratio of 5% or lower (almost no effect)); Q: Galium spurium, herbicidal effect grade (Galium spurium [3]; [7]): 0 (Herbicidal ratio of 5% or lower (almost no effect)); R: Veronica persica, herbicidal effect grade (Veronica persica; [7]): 0 (Herbicidal ratio of 5% or lower (almost no effect)); P: Stellaria media, herbicidal effect grade (Stellaria media; [7]): 0 (Herbicidal ratio of 5% or lower (almost no effect)); L: Apera spica-venti, herbicidal effect grade (Apera spica-venti [6]; [7]): 5 (Herbicidal ratio of 90% or more (almost completely withered))
3 | CC(CC1CC(O)=C(c2c(C)cc(C)cc2C)C1=O)=NOC1CCCC1 (stereo not drawn) [1-106] |  |  |  |  |  |  |  |  |  |  |  |  | 0 (Herbicidal ratio of 5% or lower (almost no effect)) | 5 (Herbicidal ratio of 90% or more (almost completely withered)) | 5 (Herbicidal ratio of 90% or more (almost completely withered)) | 5 (Herbicidal ratio of 90% or more (almost completely withered)) | 5 (Herbicidal ratio of 90% or more (almost completely withered)) | 5 (Herbicidal ratio of 90% or more (almost completely withered)) | 3 (Herbicidal ratio of 40% or higher and lower than 70%) | 5 (Herbicidal ratio of 90% or more (almost completely withered)) | Q: Galium spurium, herbicidal effect grade (Galium spurium [3]; 320 g/ha): 0 (Herbicidal ratio of 5% or lower (almost no effect)); R: Veronica persica, herbicidal effect grade (Veronica persica; 320 g/ha): 0 (Herbicidal ratio of 5% or lower (almost no effect)); effect on crop b (directly sowed rice plant), grade 0-5 [4]: 5 (Herbicidal ratio of 90% or more (almost completely withered)); e: wheat, effect on crop (criteria 0-5) (wheat): 4 (Herbicidal ratio of 70% or higher and lower than 90%); Q: Galium spurium, herbicidal effect (criteria 0-5) (Galium spurium [5]): 0 (Herbicidal ratio of 5% or lower (almost no effect)); G: Setaria viridis, herbicidal effect grade (Setaria viridis): 5 (Herbicidal ratio of 90% or more (almost completely withered)); P: Stellaria media, herbicidal effect grade (Stellaria media; 320 g/ha): 0 (Herbicidal ratio of 5% or lower (almost no effect)); g: rapeseed, effect on crop (criteria 0-5) (rapeseed): 3 (Herbicidal ratio of 40% or higher and lower than 70%); L: Apera spica-venti, herbicidal effect grade (Apera spica-venti [6]; 320 g/ha): 5 (Herbicidal ratio of 90% or more (almost completely withered))
4 | CC(CC1CC(O)=C(c2c(C)cc(C)cc2C)C1=O)=NOCc1ccccc1Cl (stereo not drawn) [1-113] |  |  |  |  |  |  |  |  |  |  |  |  | 0 (Herbicidal ratio of 5% or lower (almost no effect)) | 3 (Herbicidal ratio of 40% or higher and lower than 70%) | 5 (Herbicidal ratio of 90% or more (almost completely withered)) | 4 (Herbicidal ratio of 70% or higher and lower than 90%) | 5 (Herbicidal ratio of 90% or more (almost completely withered)) | 5 (Herbicidal ratio of 90% or more (almost completely withered)) | 4 (Herbicidal ratio of 70% or higher and lower than 90%) | 5 (Herbicidal ratio of 90% or more (almost completely withered)) | Q: Galium spurium, herbicidal effect grade (Galium spurium [3]; 320 g/ha): 0 (Herbicidal ratio of 5% or lower (almost no effect)); Herbicidal effect grade, C: Monochoria vaginalis (Monochoria vaginalis): 4 (Herbicidal ratio of 70% or higher and lower than 90%); R: Veronica persica, herbicidal effect grade (Veronica persica; 320 g/ha): 0 (Herbicidal ratio of 5% or lower (almost no effect)); e: wheat, effect on crop (criteria 0-5) (wheat): 3 (Herbicidal ratio of 40% or higher and lower than 70%); Q: Galium spurium, herbicidal effect (criteria 0-5) (Galium spurium [5]): 0 (Herbicidal ratio of 5% or lower (almost no effect)); G: Setaria viridis, herbicidal effect grade (Setaria viridis): 0 (Herbicidal ratio of 5% or lower (almost no effect)); P: Stellaria media, herbicidal effect grade (Stellaria media; 320 g/ha): 0 (Herbicidal ratio of 5% or lower (almost no effect)); g: rapeseed, effect on crop (criteria 0-5) (rapeseed): 5 (Herbicidal ratio of 90% or more (almost completely withered)); L: Apera spica-venti, herbicidal effect grade (Apera spica-venti [6]; 320 g/ha): 5 (Herbicidal ratio of 90% or more (almost completely withered))
